According to patent publication US20020068038A1, “Foaming tablet for cleaning the oral cavity and preparation method thereof” (priority 1998, published 2002):
Like-named read-outs stand apart in the source and are kept apart here.

Legend:
[1] = tested on: Streptococcus sanguis
[2] = tested on: Streptococcuis mutans
[3] = tested on: Lactobacillus casei
[4] = tested on: Acetinobacillus
[5] = tested on: Bacterioides gingivalis
[6] = tested on: Capnocytophaga ochraceus
[7] = tested on: Fusobacterium nucleanum
[8] = tested on: Eikenella corrdens
[9] = Streptococcus sanguis, MH medium, 96 hours anaerobic cultivation at 37° C., less than 10 colonies on LRBB agar
[10] = Streptococcuis mutans, MH medium, 96 hours anaerobic cultivation at 37° C., less than 10 colonies on LRBB agar
[11] = Lactobacillus casei, MH medium, 96 hours anaerobic cultivation at 37° C., less than 10 colonies on LRBB agar
[12] = Acetinobacillus, MH medium, 96 hours anaerobic cultivation at 37° C., less than 10 colonies on LRBB agar
[13] = Bacterioides gingivalis, MH medium, 96 hours anaerobic cultivation at 37° C., less than 10 colonies on LRBB agar
[14] = Capnocytophaga ochraceus, MH medium, 96 hours anaerobic cultivation at 37° C., less than 10 colonies on LRBB agar
[15] = Fusobacterium nucleanum, MH medium, 96 hours anaerobic cultivation at 37° C., less than 10 colonies on LRBB agar

In the case of `O=S(=O)([O-])[O-].[Mg+2]` [MgSO4, magnesium sulfate], the disinfection concentration [1, 9] was 1,600, the disinfection concentration [2, 10] was 1,700 and the disinfection concentration [3, 11] was 1,500. The disinfection concentration [4, 12] was 300, the disinfection concentration [5, 13] was 600 and the disinfection concentration [6, 14] was 400. For the same compound, the disinfection concentration [7, 15] was 300.

With `[Cl-].[Na+]` [NaCl, sodium chloride] the disinfection concentration [1, 9] was 2,200, the disinfection concentration [2, 10] was 1,300 and the disinfection concentration [3, 11] was 1,200. For the same compound, the disinfection concentration [4, 12] was 250, the disinfection concentration [5, 13] was 650 and the disinfection concentration [6, 14] was 350. It also gave a disinfection concentration ([8]; Eikenella corrdens, MH medium, 96 hours anaerobic cultivation at 37° C., less than 10 colonies on LRBB agar) of 400 and a disinfection concentration [7, 15] of 400.

`O=C([O-])O.[Na+]` [NaHCO3, sodium bicarbonate] was tested, and the disinfection concentration [1] was 500, the disinfection concentration [2] was 450 and the disinfection concentration [3] was 500. The disinfection concentration [4] was 250, the disinfection concentration [5] was 500 and the disinfection concentration [6] was 200. For the same compound, the disinfection concentration [7] was 450.

Compound `O=C([O-])O.[K+]` [KHCO3, potassium bicarbonate] has a disinfection concentration [1] of 300, a disinfection concentration [2] of 600 and a disinfection concentration [3] of 600. It also gave a disinfection concentration [4] of 300, a disinfection concentration [5] of 100 and a disinfection concentration [6] of 150. The disinfection concentration [8] was 300.
